In US20200087258A1, “INHIBITOR OF CITRATE TRANSPORTER AND THEIR USE IN THERAPY” (Eternygen GmbH, priority 2017, published 2020) one finds IC50 data, which are given here for 21 compounds.

Each structure is given as a SMILES string.

In experiment [1] the target is T1, INDY (Homo sapiens, UniProt Q86YT5). Kind of experiment: 14C-citrate uptake in HEK293 cells overexpressing recombinant human INDY (NaCT). In kind it is cell-based. More on the design: expressed in transfected cells; host or cells: HEK293. As for the experimental part:
(§1) The compound was obtained by screening of a library containing more than 50,000 lead-like compounds and fragments. The library was tested using a functional citrate uptake assay with HEK293 cells overexpressing recombinant human INDY. The following hit confirmation was conducted in the same assay system. To confirm the activity of selected compounds on the target INDY another cell assay was conducted. In this assay system citrate uptake was measured using HepG2 cells which endogenously express INDY. Furthermore selectivity of selected compounds was tested for two other transporters in different assay systems. The first transporter was the glutamate transporter GLT-1 tested in a glutamate uptake assays using HEK293 cells overexpressing recombinant human GLT-1. The second transporter was the glucose transporter GLUT1 tested in a glucose uptake assay using Huh-7 cells which endogenously express GLUT1. Compounds were considered to be selective with an at least 5-fold higher activity for INDY than for the other two transporters.
(§2) Cells were maintained in cell medium using cell culture grade flasks (CellSTACK Corning, 500 cm2 dishes or T175 depending on cell number). The selection antibiotic and G418 (800 μg/ml) was added during cultivation but not for seeding into assay plates. For splitting, cells were washed with PBS (w/o Ca2+, Mg2+, phenol red) and detached with Trypsin/EDTA. Throughout cultivation cells were kept sub-confluent. Detached cells (50,000 cells/well) were seeded in 96-well plates (white, clear bottom from Corning #655098) and incubated over night before usage in the assay. The following media were used. For HEK293 cells expressing INDY MEM (PAA)+10% FCS+1×P/S+2 mM L-Gln; for HEK293 cells expressing GLT-1 DMEM (Gibco)+10% FCS+400 µg/ml G418; for Huh7 cells DMEM (Gibco)+10% FCS+2 mM L-Gin (+1×P/S); for HepG2 cells MEM (PAA, Cat # E15-024)+10% FCS+2 mM L-Gin+1×NEAA+1 mM Na-Pyruvat
(§3) The following assay buffers for the particular uptake reaction were used. Citrate uptake buffer: 120 mM NaCl, 5.4 mM KCl, 0.8 mM MgSO4, 5 mM glucose, 1.8 mM CaCl2, 25 mM Hepes, 25 mM MES, pH 6.5. Glutamate uptake buffer: HBSS, 1 mM CaCl2, 1 mM MgCl2, 20 mM Hepes pH 7.4. Glucose uptake buffer: 25 mM Hepes+25 mM MES pH 7.4, 120 mM NaCl, 5.4 mM KCl, 1.8 mM CaCl2, 0.8 mM MgSO4.
INDY mediated citrate uptake was determined in HEK293 cells. To determine the uptake of ^14C labelled citrate into cells, HEK293 cells over-expressing human NaCT were used. Cloning of human NaCT was done in analogy as described in Birkenfeld et al. (Birkenfeld et al., 2011, Cell Metabolism 14, 184-195, 2011).
Human NaCT HEK293 cells were seeded into white clear-bottom 96-well plates (50,000/well) in the presence of 4 μg/ml Poly-D-Lysine and incubated at 37° C. for 16-24 hours. On the days of the assay the plates were washed once with assay buffer using automated washing/LS 405 Selectors, BioTek ending with a buffer volume of 40 μl. Then 5 μl of compound solution in assay buffer was added and incubated for 5-30 min at 37° C. in cell incubator, HERA cell Heraeus. Afterwards 10 μl of substrate 14C-citrate ([…]/[…] per well) were added and incubated for another 20-90 min at 37° C. in cell incubator, HERAcell. Then plates were washed twice with 200 μl ice-cold assay buffer and residual volume was discarded. For cell lysis 50 μl ice-cold NaOH (100 mM) was added and incubated for 15 minutes at RT on a plate shaker. Finally, 200 μl scintillation fluid (scintillator OptiPhase Supermix, Perkin Elmer) was added. After 15 min incubation at RT without shaking, plates were measured using a TopCount reader system (Perkin Elmer). As a positive control 10 mM citrate was applied. It is possible to use this assay also in analogy in a 384-well plate format.

Experiment [2] addresses T1, INDY. Kind of experiment: 14C-citrate uptake in HepG2 cells endogenously expressing INDY (NaCT). The class given is cell-based. The following applies: endogenous INDY. As for the experimental part:
as §1, §2, §3
INDY mediated citrate uptake was also determined in HepG2 cells. To determine the uptake of ^14C labelled citrate into cells, HepG2 cells endogenously expressing human NaCT were used. (Gopal et al. 2007 Am J Physiol Gastrointest Liver Physiol 292).
HepG2 cells were seeded into white clear-bottom 96-well plates (50,000/well) coated with collagen and incubated at 37° C. for 16-24 hours. After that plates were washed once with assay buffer using automated washing/LS 405 Selectors, BioTek ending with a buffer volume of 40 μl. Then 5 μl of compound solution in assay buffer was added and incubated for 5 min at 37° C. in cell incubator, HERA cell Heraeus. Afterwards 10 μl of substrate 14C-citrate (10 nM) were added and incubated for another 90 min at 37° C. in cell incubator, HERAcell. Then plates were washed 3× with 200 μl buffer and […] cell lysis induced by adding 50 μl ice-cold NaOH (100 mM). Plates were incubated for 25 min at RT on a plate shaker and afterwards 200 μl scintillation fluid was added and incubated for 15 min on a plate shaker at RT and for another 15 min without shaking at RT. Plates were measured using a TopCount system. As a positive control 5 mM citrate was applied. It is possible to use this assay also in analogy in a 384-well plate format.

T1 sequence (Q86YT5 whole entry, the tested form may be a part): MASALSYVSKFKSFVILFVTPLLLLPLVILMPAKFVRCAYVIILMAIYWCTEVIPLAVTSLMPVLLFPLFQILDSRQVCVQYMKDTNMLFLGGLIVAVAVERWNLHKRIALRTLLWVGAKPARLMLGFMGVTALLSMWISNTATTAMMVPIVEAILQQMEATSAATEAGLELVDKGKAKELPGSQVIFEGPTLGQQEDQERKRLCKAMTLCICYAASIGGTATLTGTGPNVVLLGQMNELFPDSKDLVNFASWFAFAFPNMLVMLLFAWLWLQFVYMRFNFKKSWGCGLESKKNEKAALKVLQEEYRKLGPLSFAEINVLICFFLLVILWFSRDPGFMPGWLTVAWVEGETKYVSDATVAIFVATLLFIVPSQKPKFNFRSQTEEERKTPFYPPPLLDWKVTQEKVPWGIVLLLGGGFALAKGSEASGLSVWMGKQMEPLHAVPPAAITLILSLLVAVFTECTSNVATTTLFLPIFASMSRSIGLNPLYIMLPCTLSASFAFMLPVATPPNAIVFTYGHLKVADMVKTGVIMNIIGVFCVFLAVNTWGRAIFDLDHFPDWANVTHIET

What is called IC50 is the concentration needed to halve the response being measured. As to `O=C(NCc1ccccn1)C1CCN(S(=O)(=O)c2ccc(CC(F)(F)F)cc2)CC1` [Example 99, N-[(pyridin-2-yl)methyl]-1-[4-(2,2,2-trifluoroethyl)benzenesulfonyl]piperidine-4-carboxamide], the half-inhibitory concentration (IC50) amounted to 6.3 µM on INDY [1] and 3.2 µM at INDY [2].

In the case of `O=C(NCc1ccccc1F)C1CCN(S(=O)(=O)c2ccc(Cl)c(Cl)c2)CC1` [Example 28, 1-(3,4-dichlorobenzenesulfonyl)-N-[(2-fluorophenyl)methyl]piperidine-4-carboxamide], the figures for the IC50 at INDY [1] and against INDY [2] were greater than 20 µM and 15.7 µM, respectively. For the compound `O=C(NCc1ccc(O)cc1)C1CCN(S(=O)(=O)c2cc(Cl)cc(Cl)c2)CC1` [Example 123, 1-(3,5-dichlorobenzenesulfonyl)-N-[(4-hydroxyphenyl)methyl]piperidine-4-carboxamide], the IC50 is 2 µM on INDY [1] and 1.3 µM at INDY [2]. For `CC(C)(C)c1cccc(S(=O)(=O)N2CCC(C(=O)NCc3ccccc3F)CC2)c1` [Example 33, 1-(3-tert-butylbenzenesulfonyl)-N-[(2-fluorophenyl)methyl]piperidine-4-carboxamide], the IC50 on INDY [1] worked out at 0.5 µM; at INDY [2], 1 µM. Taken in the same sequence, the figures for `O=C(NCc1ccccn1)C1CCN(S(=O)(=O)c2ccc(Cl)c(Cl)c2)CC1` [Example 67, 1-(3,4-dichlorobenzenesulfonyl)-N-[(pyridin-2-yl)methyl]piperidine-4-carboxamide] were 18.3 µM and 7.2 µM.

In the case of `O=C(NCc1ccccn1)C1CCN(S(=O)(=O)c2ccc(C3CC3)cc2)CC1` [Example 97, 1-(4-cyclopropylbenzenesulfonyl)-N-[(pyridin-2-yl)methyl]piperidine-4-carboxamide], the 50% inhibitory concentration (IC50) is 9.2 µM at INDY [1] and 3.8 µM on INDY [2]. With `COc1cccc(S(=O)(=O)N2CCC(C(=O)NCc3ccccc3F)CC2)c1` [Example 16, N-[(2-fluorophenyl)methyl]-1-(3-methoxybenzenesulfonyl)piperidine-4-carboxamide], the IC50 was 1.4 µM at INDY [1] and 1.5 µM against INDY [2].

For `O=C(NCc1ccccn1)C1CCN(S(=O)(=O)c2ccc(OC(F)(F)F)cc2)CC1` [Example 58, N-[(pyridin-2-yl)methyl]-1-[4-(trifluoromethoxy)benzenesulfonyl]piperidine-4-carboxamide], the IC50 at INDY [1] came to 6.4 µM; against INDY [2], 2.7 µM. In the same order, the values of `O=C(NCc1ccccn1)C1CCN(S(=O)(=O)c2cc(Cl)cc(C3COC3)c2)CC1` [Example 116, 1-[3-chloro-5-(oxetan-3-yl)benzenesulfonyl]-N-[(pyridin-2-yl)methyl]piperidine-4-carboxamide] are 5.9 µM and 2.3 µM.

Take `O=C(NCc1ccccc1F)C1CCN(S(=O)(=O)c2ccc3c(c2)OCO3)CC1` [Example 26, 1-(2H-1,3-benzodioxole-5-sulfonyl)-N-[(2-fluorophenyl)methyl]piperidine-4-carboxamide]: the IC50 at INDY [1] came to 5.2 µM; against INDY [2] it was 15.9 µM.

Turning to `O=C(NCc1ccccn1)C1CCN(S(=O)(=O)c2cc(Cl)cc(C(F)(F)F)c2)CC1` [Example 130, 1-[3-chloro-5-(trifluoromethyl)benzenesulfonyl]-N-[(pyridin-2-yl)methyl]piperidine-4-carboxamide], the IC50 on INDY [1] came to 0.7 µM; on INDY [2] it was 0.5 µM. For `COc1ccccc1CNC(=O)C1CCN(S(=O)(=O)/C=C/c2ccccc2)CC1` [Example 15, N-[(2-methoxyphenyl)methyl]-1-[(E)-2-phenylethenesulfonyl]piperidine-4-carboxamide], the figures for the IC50 on INDY [1] and against INDY [2] were 2.9 µM and 2.7 µM, respectively. Regarding `O=C(NCc1ccccc1F)C1CCN(S(=O)(=O)c2ccc3c(c2)OC(F)(F)O3)CC1` [Example 47, 1-[(2,2-difluoro-2H-1,3-benzodioxol-5-yl)sulfonyl]-N-[(2-fluorophenyl)methyl]piperidine-4-carboxamide], the concentration for half-maximal inhibition (IC50) on INDY [1] and against INDY [2] was 0.7 µM each time. Turning to `O=C(NCc1ccccn1)C1CCN(S(=O)(=O)c2ccc(C(F)(F)F)cc2Cl)CC1` [Example 74, 1-[2-chloro-4-(trifluoromethyl)benzenesulfonyl]-N-[(pyridin-2-yl)methyl]piperidine-4-carboxamide], the IC50 on INDY [1] is 7.1 µM; against INDY [2], 5.1 µM.

As for `O=C(NCc1ccc(F)cc1)C1CCN(S(=O)(=O)c2cc(Cl)cc(Cl)c2)CC1` [Example 132, 1-(3,5-dichlorobenzenesulfonyl)-N-[(4-fluorophenyl)methyl]piperidine-4-carboxamide], the IC50 on INDY [1] came out at 2 µM; against INDY [2], 0.7 µM. Taken in the same sequence, the figures for `Nc1ccc(CNC(=O)C2CCN(S(=O)(=O)c3cc(Cl)cc(Cl)c3)CC2)cc1` [Example 124, N-[(4-aminophenyl)methyl]-1-(3,5-dichlorobenzenesulfonyl)piperidine-4-carboxamide] were 1.8 µM and 0.9 µM. Turning to `O=C(NCc1ccccn1)C1CCN(S(=O)(=O)c2cc(Br)cc(C(F)(F)F)c2)CC1` [Example 126, 1-[3-bromo-5-(trifluoromethyl)benzenesulfonyl]-N-[(pyridin-2-yl)methyl]piperidine-4-carboxamide], the values for the IC50 on INDY [1] and against INDY [2] were 0.5 µM and 0.4 µM, respectively. In the same order, the values of `O=C(NCc1ccccn1)C1CCN(S(=O)(=O)c2cccc(S(F)(F)(F)(F)F)c2)CC1` [Example 85, 1-[3-(pentafluoro-lambda6-sulfanyl)benzenesulfonyl]-N-[(pyridin-2-yl)methyl]pipendine-4-carboxamide] are 6.4 µM and 3 µM. The compound `COc1ccc(S(=O)(=O)N2CCC(C(=O)NCc3ccccc3F)CC2)cc1` [Example 4, N-[(2-fluorophenyl)methyl]-1-(4-methoxybenzenesulfonyl) piperidine-4-carboxamide] yielded an IC50 against INDY [2] of 5.7 µM. For `CN(Cc1ccccc1F)C(=O)C1CCN(S(=O)(=O)/C=C/c2ccccc2)CC1` [Example 8, N-[(2-fluorophenyl)methyl]-N-methyl-1-[(E)-2-phenylethenesulfonyl]piperidine-4-carboxamide], on INDY [2], the IC50 was greater than 50 µM. On the same count and under the same terms, with `O=C(NCc1ccccn1)C1CCN(S(=O)(=O)/C=C/c2ccccc2)CC1` [Example 3, 1-[(E)-2-phenylethenesulfonyl]-N-(pyridin-2-ylmethyl)piperidine-4-carboxamide] the figure was 11.3 µM.
